# Values joined by “and” are separate entries in the source; they are usually repeats but may differ in a detail not shown here. Equal values may be shown once. Read-outs that look alike come from different tables or passages of the source.
# Key:
# [1] = tested on: rats with monocrotaline induced pulmonary arterial hypertension; assay: Monocrotaline rat model for pulmonary arterial hypertension, dosing from Day 1 for 28 days (Example 1); type: in vivo, Male Sprague-Dawley rats; settings: for Fulton index: Hypertrophy (RV/LV + S), Mean / RV/Body wt, Mean / Right Ventricular Pressure (RVP), Mean / Right Ventricular Systolic Pressure (RVSP), Mean / Right ventricle (RV), Mean: group mean; for Fulton index: Hypertrophy (RV/LV + S), Mean / RV/Body wt, Mean / Right Ventricular Pressure (RVP), Mean / Right Ventricular Systolic Pressure (RVSP), Mean / Right ventricle (RV), Mean / Fulton index: Hypertrophy (RV/LV + S) / RV/Body wt / Right Ventricular Pressure (RVP) / Right ventricle (RV) / Right Ventricular Systolic Pressure (RVSP): Day 28; for Fulton index: Hypertrophy (RV/LV + S) / RV/Body wt / Right Ventricular Pressure (RVP) / Right ventricle (RV) / Right Ventricular Systolic Pressure (RVSP): individual animals; for Right Ventricular Systolic Pressure (RVSP): MCT 50 mg/kg s.c.
# Method: The studies were conducted for hemodynamic evaluation of temozolomide in anesthetized sprague dawley rats treated with monocrotaline (“MCT”) to induce pulmonary arterial hypertension. Sildenafil was used as an internal control to compare the effects of temozolomide.
# (§1) The effects of temozolomide were evaluated in rats with monocrotaline induced pulmonary arterial hypertension using sildenafil as standard care treatment. Male Sprague-Dawley rats were orally administered vehicle, temozolomide (10 mg/kg given once daily every day for 28 days starting on Day 1), or sildenafil (100 mg/kg, administered once daily every day for 28 days starting on Day 1) (n=12 in each group). Rats received a single injection of monocrotaline (50 mg/kg, s.c.) on Study Day 1. On the twenty-eighth day following monocrotaline dosing, the rats were anesthetized with ketamine/xylazine for terminal monitoring of pulmonary and systemic arterial pressures along with heart rate.
# Test Item: Vehicle (0.5% Methylcellulose+0.2% Tween 80 in deionized water, Temozolomide (10 mg/kg given once daily for 28 days; Sildenafil (100 mg/kg administered once daily)
# (§2) Route of Administration: Oral
# Study Design: The study was planned and conducted according to design depicted below in Table 1
# Pulmonary arterial hypertension was induced by injecting monocrotaline (3 mL/Kg MCT in 50% DMSO in water) subcutaneously at a dose of 50 mg/kg of body weight to all the randomized Male Sprague-Dawley rats of Groups II, III,IV and V (except negative control group). Negative control group (Group I, DMSO group) received a single dose of 3 mL/kg 50% DMSO in water for injection subcutaneously. The positive control group (Group III) received 5 ml of vehicle every morning. The rats of temozolomide group (Group IV) were orally administered temozolomide (10 mg/kg given once daily for 28 days starting on Day 1) and rats of sildenafil group (Group V) were orally administered sildenafil (100 mg/kg given once daily for 28 days starting on Day 1) On the twenty-eighth day after monocrotaline dosing, the rats were anesthetized with ketamine/xylazine for terminal monitoring of pulmonary and systemic arterial pressures along with heart rate.
# [2] = tested on: rats with monocrotaline induced pulmonary arterial hypertension; assay: Monocrotaline rat model for treatment of pulmonary arterial hypertension, dosing Day 14 till Day 28 (Example 2); type: in vivo, Male Sprague-Dawley rats; settings: for inhibition at 100 mg/kg / inhibition at 30 mg/kg: Rattus norvegicus, po; for inhibition at 100 mg/kg / % Inhibition of Fulton index : Hypertrophy (RV/LV + S) / inhibition at 30 mg/kg: positive control = 0.00; for Fulton index: Hypertrophy (RV/LV + S), Mean / Right Ventricle weight, Mean / Right Ventricular Pressure (RVP), Mean / Right Ventricular Systolic Pressure (RVSP), Mean / Right ventricle/Body weight, Mean: group mean; for Fulton index: Hypertrophy (RV/LV + S), Mean / Right Ventricle weight, Mean / Right Ventricular Pressure (RVP), Mean / Right Ventricular Systolic Pressure (RVSP), Mean / Right ventricle/Body weight, Mean / Fulton index: Hypertrophy (RV/LV + S) / Right Ventricle weight / Right Ventricular Pressure (RVP) / Right Ventricular Systolic Pressure (RVSP) / Right ventricle/Body weight: Day 28; for Fulton index: Hypertrophy (RV/LV + S) / Right Ventricle weight / Right Ventricular Pressure (RVP) / Right Ventricular Systolic Pressure (RVSP) / Right ventricle/Body weight: individual animals
# Method: The studies were conducted for hemodynamic evaluation of Temozolomide in anesthetized Sprague Dawley rats treated with monocrotaline (“MCT”) to induce pulmonary arterial hypertension. Sildenafil was used as an internal control to compare the effects of temozolomide
# as §1, with “temozolomide (30 mg/kg,” for “temozolomide (10 mg/kg”, “day” for “day for 28 days”, “Day 14 till Day 28),” for “Day 1),”, “mg/kg, given” for “mg/kg, administered”, “Day 14 till Day 28)” for “Day 1)”
# Test Item: Vehicle (0.5% Methylcellulose+0.2% Tween 80 in deionized water, temozolomide (30 mg/kg given once daily starting on Day 14 till Day 28; Sildenafil (100 mg/kg, administered once daily starting on Day 14 till Day 28)
# as §2
# Study Design: The study was planned and conducted according to design depicted below in Table 7
# Pulmonary arterial hypertension was induced by injecting 50 mg/kg dose of monocrotaline (3 mL/Kg MCT in 50% DMSO in water) subcutaneously to all the randomized Male Sprague-Dawley rats of Groups VII, VIII, IX, and X (except negative control group). Negative control group (Group VI, DMSO group) received a single dose of 3 mL/kg 50% DMSO in water for injection subcutaneously. Male Sprague-Dawley rats in groups VII, VIII, IX, and X were administered 50 mg/kg of body weight of monocrotaline in DMSO subcutaneously to induce PAH on day 1. The rats of vehicle positive control group (Group VIII) received 5 ml of vehicle every morning. The rats of the temozolomide group (Group IX) were orally administered Temozolomide (30 mg/kg given once daily starting on Day 14 till Day 28) and rats of sildenafil group (Group X) were orally administered sildenafil (100 mg/kg given once daily starting on Day 14 till Day 28). On the twenty-eighth day after monocrotaline dosing, the rats were anesthetized with ketamine/xylazine for terminal monitoring of pulmonary and systemic arterial pressures along with heart rate. It is understood that from day 1 till administration of test compounds i.e till day 14, rates of all groups were suffering from PAH due to administration of MCT. Thus the study was conducted to evaluate the efficacy of Temozolomide treatment for PAH. Sildenafil was used as an internal control to compare the effects of Temozolomide.
# [3] = cited from earlier work
# [4] = Sildenafil 100 mg/Kg p.o. QD 28 days from Day 1
# [5] = Sildenafil 100 mg/Kg p.o. QD Day 14 till Day 28
# [6] = Temozolomide 10 mg/Kg p.o. QD 28 days from Day 1
# [7] = administered after a modified high-fat breakfast
# [8] = Temozolomide 30 mg/Kg p.o. QD Day 14 till Day 28
structure (smiles),measurement,setting,value
CCCc1nn(C)c2c(=O)[nH]c(-c3cc(S(=O)(=O)N4CCN(C)CC4)ccc3OCC)nc12 [Sildenafil],"Fulton index: Hypertrophy (RV/LV + S), Mean",[1]; [4],0.312
same,"RV/Body wt, Mean",[1]; [4],0.0006
same,"Right Ventricular Pressure (RVP), Mean",[1]; [4],13.929 mmHg
same,"Right Ventricular Systolic Pressure (RVSP), Mean",[1]; [4],29.648 mmHg
same,"Right ventricle (RV), Mean",[1]; [4],0.247 g
same,Fulton index: Hypertrophy (RV/LV + S),[1]; [4],0.367 and 0.297 and 0.323 and 0.312 and 0.352 and 0.309 and 0.330 and 0.167 and 0.354
same,RV/Body wt,[1]; [4],0.0009 and 0.0006 (4×) and 0.0007 (3×) and 0.0003
same,Right Ventricular Pressure (RVP),[1]; [4],11.481 mmHg and 15.226 mmHg and 11.673 mmHg and 14.427 mmHg and 14.139 mmHg and 16.310 mmHg and 12.947 mmHg and 12.352 mmHg and 16.804 mmHg
same,Right ventricle (RV),[1]; [4],0.440 g and 0.228 g and 0.207 g and 0.232 g and 0.308 g and 0.229 g and 0.261 g and 0.083 g and 0.236 g
same,Right Ventricular Systolic Pressure (RVSP),[1]; [4],23.627 mmHg and 31.322 mmHg and 24.486 mmHg and 29.450 mmHg and 31.316 mmHg and 32.922 mmHg and 34.262 mmHg and 25.579 mmHg and 33.864 mmHg
same,inhibition at 100 mg/kg,"[2]; Sildenafil 100 mg/Kg p.o. QD Day 14 till Day 28, read-out: % Inhibition of Right Ventricular Pressure (RVP)",58.3%
same,inhibition at 100 mg/kg,"[2]; Sildenafil 100 mg/Kg p.o. QD Day 14 till Day 28, read-out: % Inhibition of Right Ventricular Systolic Pressure (RVSP)",55.1%
same,% Inhibition of Fulton index : Hypertrophy (RV/LV + S),[2]; [5],30.70%
same,"Fulton index: Hypertrophy (RV/LV + S), Mean",[2]; [5],0.384
same,"Right Ventricle weight, Mean",[2]; [5],0.286 gms
same,"Right Ventricular Pressure (RVP), Mean",[2]; [5],14.302 mmHg
same,"Right Ventricular Systolic Pressure (RVSP), Mean",[2]; [5],30.803 mmHg
same,"Right ventricle/Body weight, Mean",[2]; [5],0.0008
same,Fulton index: Hypertrophy (RV/LV + S),[2]; [5],0.464 and 0.393 and 0.306 and 0.337 and 0.389 and 0.415
same,Right Ventricle weight,[2]; [5],0.309 gms and 0.220 gms and 0.259 gms and 0.256 gms and 0.308 gms and 0.363 gms
same,Right Ventricular Pressure (RVP),[2]; [5],10.916 mmHg and 11.268 mmHg and 17.424 mmHg and 11.506 mmHg and 16.211 mmHg and 18.486 mmHg
same,Right Ventricular Systolic Pressure (RVSP),[2]; [5],22.951 mmHg and 27.908 mmHg and 33.917 mmHg and 23.264 mmHg and 40.201 mmHg and 36.579 mmHg
same,Right ventricle/Body weight,[2]; [5],0.0009 (2×) and 0.0006 and 0.0007 (2×) and 0.0012
Cn1nnc2c(C(N)=O)ncn2c1=O [Temozolomide],activity in controlling or reducing PAH,[1]; Temozolomide 10 mg/kg vs Sildenafil 100 mg/kg,comparable among with Sildenafil activity
same,systolic and mean pulmonary arterial pressures compared to the vehicle group,"[1]; after 28 days, 10 mg/kg/QD/day",differences in systolic and mean pulmonary arterial pressures
same,"Fulton index: Hypertrophy (RV/LV + S), Mean",[1]; [6],0.342
same,"RV/Body wt, Mean",[1]; [6],0.0007
same,"Right Ventricular Pressure (RVP), Mean",[1]; [6],15.548 mmHg
same,"Right Ventricular Systolic Pressure (RVSP), Mean",[1]; [6],33.732 mmHg
same,"Right ventricle (RV), Mean",[1]; [6],0.227 g
same,Fulton index: Hypertrophy (RV/LV + S),[1]; [6],0.325 and 0.333 and 0.450 and 0.294 and 0.406 and 0.287 and 0.277 and 0.255 and 0.519 and 0.345 and 0.273
same,RV/Body wt,[1]; [6],0.0006 (3×) and 0.0008 (2×) and 0.0005 (4×) and 0.0011 and 0.0007
same,Right Ventricular Pressure (RVP),[1]; [6],11.178 mmHg and 15.927 mmHg and 16.493 mmHg and 19.994 mmHg and 15.532 mmHg and 12.593 mmHg and 16.840 mmHg and 17.431 mmHg and 16.896 mmHg and 16.462 mmHg and 11.679 mmHg
same,Right ventricle (RV),[1]; [6],0.244 g and 0.220 g (2×) and 0.298 g and 0.202 g and 0.268 g and 0.218 g and 0.197 g and 0.167 g and 0.311 g and 0.156 g
same,Right Ventricular Systolic Pressure (RVSP),[1]; [6],29.626 mmHg and 33.857 mmHg and 35.059 mmHg and 38.531 mmHg and 30.456 mmHg and 30.333 mmHg and 36.128 mmHg and 35.368 mmHg and 40.220 mmHg and 33.582 mmHg and 27.895 mmHg
same,AUC decrease,[3]; [7],9%
same,Mean peak plasma concentration decrease,[3]; [7],32%
same,median Tmax,[3]; [7],2.25 h
same,median Tmax increase,[3]; [7],2 fold
same,absorption,[3]; oral administration,rapidly and completely absorbed
same,inhibition at 30 mg/kg,"[2]; Temozolomide 30 mg/Kg p.o. QD Day 14 till Day 28, read-out: % Inhibition of Right Ventricular Pressure (RVP)",53.9%
same,inhibition at 30 mg/kg,"[2]; Temozolomide 30 mg/Kg p.o. QD Day 14 till Day 28, read-out: % Inhibition of Right Ventricular Systolic Pressure (RVSP)",44.8%
same,% Inhibition of Fulton index : Hypertrophy (RV/LV + S),[2]; [8],19.83%
same,activity in treatment of PAH,[2]; Temozolomide 30 mg/kg vs Sildenafil 100 mg/kg,comparable among with Sildenafil activity
same,systolic and mean pulmonary arterial pressures compared to the vehicle group,"[2]; after 28 days, 30 mg/kg/QD/day, Day 14 till Day 28",differences in systolic and mean pulmonary arterial pressures
same,"Fulton index: Hypertrophy (RV/LV + S), Mean",[2]; [8],0.444
same,"Right Ventricle weight, Mean",[2]; [8],0.274 gms
same,"Right Ventricular Pressure (RVP), Mean",[2]; [8],15.802 mmHg
same,"Right Ventricular Systolic Pressure (RVSP), Mean",[2]; [8],37.936 mmHg
same,"Right ventricle/Body weight, Mean",[2]; [8],0.0009
same,Fulton index: Hypertrophy (RV/LV + S),[2]; [8],0.502 and 0.480 and 0.481 (2×) and 0.382 and 0.357 and 0.485 and 0.506 and 0.341 and 0.427
same,Right Ventricle weight,[2]; [8],0.311 gms and 0.286 gms and 0.210 gms and 0.237 gms and 0.273 gms and 0.343 gms and 0.232 gms and 0.245 gms and 0.283 gms and 0.318 gms
same,Right Ventricular Pressure (RVP),[2]; [8],15.151 mmHg and 19.476 mmHg and 14.308 mmHg and 12.295 mmHg and 15.993 mmHg and 21.577 mmHg and 22.479 mmHg and 12.349 mmHg and 12.363 mmHg and 12.035 mmHg
same,Right ventricle/Body weight,[2]; [8],0.0011 (3×) and 0.0010 and 0.0008 (3×) and 0.0007 and 0.0009 (2×)
same,Right Ventricular Systolic Pressure (RVSP),"[2]; Temozolomide 30 mg/Kg p.o. QD Day 14 till Day 28, MCT 50 mg/kg s.c. Day 1",39.693 mmHg and 42.429 mmHg and 31.561 mmHg and 36.888 mmHg and 37.763 mmHg and 48.504 mmHg and 45.392 mmHg and 33.928 mmHg and 29.989 mmHg and 33.218 mmHg

# — patent US10709715B2, “Method of treating hypertension” (Cipla Limited, priority 2017, dated 2020)
